In ChEMBL document CHEMBL3822383, “Coumarin sulfonamides derivatives as potent and selective COX-2 inhibitors with efficacy in suppressing cancer proliferation and metastasis” (Bioorg Med Chem Lett, 2016) one finds IC50 and inhibition data, which are given here for 20 compounds.

Calls of active or inactive are those of the source. The calls are words filed in the database; no cut-off is given here.

One assay deals with A549. Description: cells. The conditions noted are these: Homo sapiens, A549, 24 h.
The nature of assay [1]: cells. The settings on record: Homo sapiens, HEK-293T, 24 h.
Description: Antiproliferative activity against human 293T cells after 24 hrs by MTT assay
Assay [2] has as its system HeLa. Kind of assay: Inhibition of PGE2 secretion in human HeLa cells at 0.1 uM after 24 hrs by EIA monoclonal assay. It is filed as functional, cell-based.
Assay [3] in a line: cells. The settings on record: Homo sapiens, L02, 24 h.
Description: Antiproliferative activity against human LO2 cells after 24 hrs by MTT assay
Assay [4] relates to HeLa. Kind of assay: cells. The conditions noted are these: Homo sapiens, 24 h.
Description: Antiproliferative activity against human HeLa cells after 24 hrs by MTT assay
Assay [5] in a line: cells. The settings on record: Mus musculus, B16-F10, 24 h.
Description: Antiproliferative activity against mouse B16F10 cells after 24 hrs by MTT assay
The next assay has as its system HepG2. Kind of assay: cells. The conditions noted are these: Homo sapiens, HepG2, 24 h.
The test system of assay [6] is HeLa. Kind of assay: Inhibition of cell adhesion in human HeLa cells assessed as reduction in cell attachment up to 8 uM after 1 hr by MTT assay. It is filed as functional, cell-based. (Tetrazolium assays rely on reduction of a dye to a coloured formazan, in cell work by metabolically active cells.)
Assay [7] deals with Prostaglandin G/H synthase 1 (Homo sapiens, UniProt P23219). Description: Inhibition of human COX1 using arachidonic acid assessed as production of PGF2alpha after 5 mins by ELISA. For orientation: ELISA stands for enzyme-linked immunosorbent assay.
Prostaglandin G/H synthase 1, sequence (P23219 whole entry): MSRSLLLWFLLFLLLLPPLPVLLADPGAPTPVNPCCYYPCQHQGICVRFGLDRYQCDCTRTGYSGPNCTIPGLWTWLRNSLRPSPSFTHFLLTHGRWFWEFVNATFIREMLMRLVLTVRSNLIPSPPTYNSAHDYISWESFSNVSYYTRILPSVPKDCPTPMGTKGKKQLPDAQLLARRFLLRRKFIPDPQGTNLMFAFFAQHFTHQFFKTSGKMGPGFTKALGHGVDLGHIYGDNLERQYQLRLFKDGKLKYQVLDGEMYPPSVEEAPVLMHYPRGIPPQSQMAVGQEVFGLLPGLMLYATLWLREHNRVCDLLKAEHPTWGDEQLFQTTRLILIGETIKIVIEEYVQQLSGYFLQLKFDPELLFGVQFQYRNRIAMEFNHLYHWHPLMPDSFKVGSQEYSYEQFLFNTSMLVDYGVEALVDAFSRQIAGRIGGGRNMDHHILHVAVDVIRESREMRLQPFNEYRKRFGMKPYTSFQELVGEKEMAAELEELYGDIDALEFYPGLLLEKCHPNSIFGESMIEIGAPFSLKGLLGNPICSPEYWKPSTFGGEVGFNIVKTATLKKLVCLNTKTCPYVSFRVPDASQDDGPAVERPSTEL

Description for A549: Antiproliferative activity against human A549 cells after 24 hrs by MTT assay
Description for HepG2: Antiproliferative activity against human HepG2 cells after 24 hrs by MTT assay

The term IC50 denotes the midpoint of a concentration-inhibition curve. For `Cc1ccc(-c2cc(C(F)(F)F)nn2-c2ccc(S(N)(=O)=O)cc2)cc1` [CELECOXIB], the IC50 with A549 worked out at 15.6 µM; in “cells [1]”, 95.3 µM; in “cells [3]” it was 98.2 µM; in the assay with HeLa [4] it was 7.79 µM; in the assay “cells [5]” it was 14.4 µM; with HepG2, 10 µM. Besides, the inhibition result in the assay with HeLa [2] is “Active”. Also, in the assay with HeLa [6], the inhibition result is “inactive”.

For `NS(=O)(=O)c1ccc(-n2nc(C(=O)N/N=C/c3c(Cl)c4ccccc4oc3=O)cc2-c2ccc(F)cc2)cc1`, the IC50 amounted to 11.2 µM in the assay on A549; 181 µM in “cells [1]”; 192 µM in the assay “cells [3]”; 53.4 µM in [7]; 0.94 µM in the assay with HeLa [4]; 9.76 µM in the assay “cells [5]”. The IC50 in the assay on HepG2 turned out to be 3.53 µM.

Take `NS(=O)(=O)c1ccc(-n2nc(C(=O)N/N=C/c3c(Cl)c4ccccc4oc3=O)cc2-c2cccc(F)c2)cc1`: the IC50 with A549 came to 16.2 µM; in “cells [1]” it was 155 µM; in “cells [3]”, 206 µM; in assay [7], 74.3 µM; in the assay with HeLa [4], 3.43 µM; in the assay “cells [5]”, 8.79 µM. This compound gave an IC50 with HepG2 of 4.74 µM.

`Cc1ccc(-c2cc(C(=O)N/N=C/c3c(Cl)c4ccccc4oc3=O)nn2-c2ccc(S(N)(=O)=O)cc2)cc1C`: the 50% inhibitory concentration (IC50) with A549 is 24.2 µM; in the assay “cells [1]” it was 233 µM; in the assay “cells [3]” it was over 300 µM; in assay [7] it was over 100 µM; in the assay with HeLa [4], 6.92 µM; in the assay “cells [5]” it was 6.93 µM. The same compound gave a concentration for half-maximal inhibition (IC50) with HepG2 of 4.41 µM.

Regarding `Cc1cccc(-c2cc(C(=O)N/N=C/c3c(Cl)c4ccccc4oc3=O)nn2-c2ccc(S(N)(=O)=O)cc2)c1`, the IC50 in the assay with A549 is 20.3 µM; in “cells [1]”, over 300 µM; in “cells [3]”, 199 µM; in assay [7], 48.2 µM; in the assay on HeLa [4], 11.1 µM; in “cells [5]”, 5.28 µM. Further, in the assay on HepG2, the IC50 came to 5.98 µM.

For `NS(=O)(=O)c1ccc(-n2nc(C(=O)N/N=C/c3c(Cl)c4ccccc4oc3=O)cc2-c2ccc(O)cc2)cc1`, the IC50 was 26.4 µM with A549; 139 µM in the assay “cells [1]”; 163 µM in the assay “cells [3]”; over 100 µM in [7]; 12.4 µM in the assay on HeLa [4]; 21.3 µM in the assay “cells [5]”. For the same compound, in the assay on HepG2, half-maximal inhibition (IC50) required 18.2 µM.

Take `NS(=O)(=O)c1ccc(-n2nc(C(=O)N/N=C/c3c(Cl)c4ccccc4oc3=O)cc2-c2cccc(Cl)c2)cc1`: the concentration for half-maximal inhibition (IC50) in the assay on A549 is 14.7 µM; in “cells [1]”, 152 µM; in “cells [3]”, 168 µM; in assay [7], over 100 µM; in the assay with HeLa [4], 5.46 µM; in “cells [5]”, 15.6 µM. Further, in the assay on HepG2, half-maximal inhibition (IC50) was put at 6.75 µM.

Consider `NS(=O)(=O)c1ccc(-n2nc(C(=O)N/N=C/c3c(Cl)c4ccccc4oc3=O)cc2-c2ccccc2F)cc1`, for which the IC50 was 14.3 µM with A549; 108 µM in “cells [1]”; 148 µM in “cells [3]”; over 100 µM in assay [7]; 2.85 µM in the assay with HeLa [4]; 6.41 µM in “cells [5]”. This compound also returned an IC50 with HepG2 of 5.94 µM.

With `CCOc1ccc(-c2cc(C(=O)N/N=C/c3c(Cl)c4ccccc4oc3=O)nn2-c2ccc(S(N)(=O)=O)cc2)cc1`, the IC50 in assay [7] was determined as 78.5 µM.

For `NS(=O)(=O)c1ccc(-n2nc(C(=O)N/N=C/c3c(Cl)c4ccccc4oc3=O)cc2-c2ccc([N+](=O)[O-])cc2)cc1`, the IC50 came to 3.85 µM with A549; 113 µM in the assay “cells [1]”; 133 µM in “cells [3]”; 42.2 µM in assay [7]; 0.52 µM in the assay on HeLa [4]; 4.04 µM in the assay “cells [5]”. This compound showed an IC50 with HepG2 of 1.63 µM.

With `NS(=O)(=O)c1ccc(-n2nc(C(=O)N/N=C/c3c(Cl)c4ccccc4oc3=O)cc2-c2ccccc2Cl)cc1`, the IC50 in the assay with A549 came to 12.3 µM; in “cells [1]”, 254 µM; in the assay “cells [3]”, 214 µM; in assay [7], 86.2 µM; in the assay on HeLa [4] it was 5.09 µM; in the assay “cells [5]”, 9.12 µM. Also, the concentration for half-maximal inhibition (IC50) in the assay with HepG2 was determined as 6.1 µM.

Consider `Cc1ccc(-c2cc(C(=O)N/N=C/c3c(Cl)c4ccccc4oc3=O)nn2-c2ccc(S(N)(=O)=O)cc2)cc1`, for which the half-inhibitory concentration (IC50) is 22.1 µM in the assay with A549; 189 µM in the assay “cells [1]”; over 300 µM in the assay “cells [3]”; 89.5 µM in [7]; 8.81 µM in the assay with HeLa [4]; 6.22 µM in “cells [5]”. Also, the IC50 in the assay with HepG2 worked out at 11.3 µM.

Take `COc1cccc(-c2cc(C(=O)N/N=C/c3c(Cl)c4ccccc4oc3=O)nn2-c2ccc(S(N)(=O)=O)cc2)c1`: the IC50 was 22.4 µM in the assay with A549; 107 µM in the assay “cells [1]”; 105 µM in the assay “cells [3]”; over 100 µM in [7]; 7.58 µM in the assay with HeLa [4]; 9.58 µM in “cells [5]”. Besides, in the assay on HepG2, the IC50 was 15.7 µM.

As to `COc1ccc(-c2cc(C(=O)N/N=C/c3c(Cl)c4ccccc4oc3=O)nn2-c2ccc(S(N)(=O)=O)cc2)cc1OC`, the IC50 in the assay on A549 was 40.1 µM; in “cells [1]” it was 175 µM; in “cells [3]” it was 187 µM; in assay [7] it was 69.3 µM; with HeLa [4], 13.1 µM; in “cells [5]” it was 19.8 µM. Further, in the assay with HepG2, the IC50 came out at 21.2 µM.

As to `COc1ccc(-c2cc(C(=O)N/N=C/c3c(Cl)c4ccccc4oc3=O)nn2-c2ccc(S(N)(=O)=O)cc2)cc1`, the concentration for half-maximal inhibition (IC50) with A549 was 31.5 µM; in “cells [1]”, over 300 µM; in the assay “cells [3]” it was over 300 µM; in assay [7] it was 84.3 µM; in the assay on HeLa [4] it was 12 µM; in “cells [5]”, 7.31 µM. Besides, the half-inhibitory concentration (IC50) in the assay on HepG2 stood at 14.7 µM.

`COc1cc(-c2cc(C(=O)N/N=C/c3c(Cl)c4ccccc4oc3=O)nn2-c2ccc(S(N)(=O)=O)cc2)cc(OC)c1OC`: the half-maximal inhibitory concentration (IC50) in the assay with A549 was determined as 26.1 µM; in “cells [1]”, 101 µM; in “cells [3]” it was 116 µM; in assay [7], 49.8 µM; in the assay with HeLa [4], 16.2 µM; in the assay “cells [5]” it was 26.2 µM. The same compound registered an IC50 in the assay on HepG2 of 20 µM.

As to `NS(=O)(=O)c1ccc(-n2nc(C(=O)N/N=C/c3c(Cl)c4ccccc4oc3=O)cc2-c2ccc(Cl)c(Cl)c2)cc1`, the IC50 is 23.5 µM in the assay with A549; 153 µM in “cells [1]”; over 300 µM in the assay “cells [3]”; 96.6 µM in assay [7]; 4.91 µM in the assay with HeLa [4]; 7.45 µM in “cells [5]”. Also, the IC50 in the assay with HepG2 came out at 5.12 µM.

`Cc1ccc(-c2cc(C(=O)N/N=C/c3c(Cl)c4ccccc4oc3=O)nn2-c2ccc(S(N)(=O)=O)cc2)c(C)c1`: the IC50 with A549 was found to be 28.5 µM; in “cells [1]”, 175 µM; in “cells [3]” it was 206 µM; in [7], 39.5 µM; with HeLa [4] it was 7.95 µM; in the assay “cells [5]” it was 4.68 µM. The compound also came in with an IC50 with HepG2 of 6.7 µM.

On to `NS(=O)(=O)c1ccc(-n2nc(C(=O)N/N=C/c3c(Cl)c4ccccc4oc3=O)cc2-c2ccccc2)cc1`, for which the half-inhibitory concentration (IC50) in the assay with A549 was 33.5 µM; in the assay “cells [1]”, 180 µM; in “cells [3]”, 183 µM; in [7] it was over 100 µM; in the assay with HeLa [4] it was 9.86 µM; in “cells [5]” it was 9.53 µM. The IC50 with HepG2 is 5.76 µM.

With `NS(=O)(=O)c1ccc(-n2nc(C(=O)N/N=C/c3c(Cl)c4ccccc4oc3=O)cc2-c2ccccc2O)cc1`, the IC50 is 17.2 µM with A549; over 300 µM in the assay “cells [1]”; 159 µM in “cells [3]”; over 100 µM in assay [7]; 11.7 µM in the assay on HeLa [4]; 20.9 µM in “cells [5]”. 19.9 µM corresponded to half-maximal inhibition in the assay with HepG2 (IC50).
